Results as given in patent US20070218460A1, “Method of Estimating Toxicity of Drug” (TAKEDA PHARMACEUTICAL COMPANY LIMITED, priority 2003, published 2007).

Experiments:
HepG2 cells [1] = test: Highest concentration at which cells were viable after 72 hr exposure; type: cell-based, human
HepG2 cells [2] = test: Electron-microscopic examination of PLsis induction potential (myelin-like structure)
Text: Using 30 kinds of the following commercially available drugs as test compounds, the level of PLsis induction potential was examined with the emergence of an intracellular myelin-like structure or a structure having a high electron density, which is an early image thereof, as an index by electronmicroscopic observation.
HepG2 cells (purchased from ATCC) were exposed to the test compound by a conventional method. HepG2 cells used were of the cell growth phase. The attached HepG2 cells were washed twice with. Dulbecco's phosphate buffered saline (calcium and magnesium salt free; PBS(−))(Dainippon Pharmaceutical Co., Ltd.) containing 0.05 w/v % EDTA, detached with a cell dissociation solution of 0.25 vol % trypsin-1 mmol/L EDTA (Gibco BRL) diluted 2-fold with PBS(−), centrifuged to remove the supernatant, and adjusted to a concentration of 2×10^5 cells/250 μL with a culture medium [Dulbecco's modified Eagle medium (DMEM)(Gibco BRL) supplemented with 50 U/mL penicillin (Gibco BRL)-[…] streptomycin (Gibco BRL) and 5 vol % FBS (Bio whittaker)]. DMSO alone or a culture medium containing the above-mentioned test compound in DMSO solution was dispensed to a well by 250 μL, the above-mentioned cell suspension (250 μL) was added, and cultured in a CO2 incubator (7100; Napco) under an atmosphere of 5% CO2—95% air at 37° C.
After culture for 72 hr, the culture medium was removed, and the cells were fixed with 1 w/v % glutaraldehyde solution. After fixing with 2 w/v % osmic acid for 2 hr by a conventional method and dehydrating with an alcohol series, the cells were embedded in a resin (Quetol 812). Ultrathin slices were prepared and, after electron staining, observed with an electron microscope (H-300; Hitachi) and photographed in 3 or more pictures per each sample (magnification ×5000). The processing after post-fixation was performed by Applied Medical Research.

slc2a3 = test: Real-time quantitative PCR of PLsis marker gene expression; type: cell-based, human; settings: HepG2 cells, 24 hr exposure, relative value, control group = 1.0, GAPDH internal standard, n=3
Protocol: (§1) Using RNeasy Mini Kit (QIAGEN), total RNA was purified from the cells, and cDNA was synthesized in a 100 μL system using TaqMan Reverse Transcription Reagents (PE Applied Biosystems).
(§2) As the primer for glyceraldehyde-3-phosphoric acid dehydrogenase (GAPDH) and VIC labeled probe, those attached to TaqMan GAPDH Control Reagents (PE Applied Biosystems) were used.
(§3) Using 100 μL of the reaction mixture containing 5 μL of cDNA (1×TaqMan Universal PCR Master Mix (PE Applied Biosystems), 200 nM forward primer, 200 nM reverse primer and 200 nM TaqMan probe), 40 cycles of (1 cycle=95° C., 15 sec; 60° C., 1 min) PCR were performed. PCR and fluorescence detection were performed using ABI PRISM Sequence Detector 7000 (PE Applied Biosystems). As the internal standard, GAPDH was used to amend the measurement values. For the determination of significant difference, t-test was used (n=3).
(§4) For each test compound, the expression variation rate of 12 genes each relative to the control group was determined.

tagln = test: as above; type: cell-based, human; settings: HepG2 cells, 24 hr exposure, relative value, control group = 1.0, GAPDH internal standard, n=3
Protocol: as §1, §2, §3, §4

mgc4171 = test: as above; type: cell-based, human; settings: HepG2 cells, 24 hr exposure, relative value, control group = 1.0, GAPDH internal standard, n=3
Protocol: as §1, §2, §3, §4

kiaa1001 = test: as above; type: cell-based, human; settings: HepG2 cells, 24 hr exposure, relative value, control group = 1.0, GAPDH internal standard, n=3
Protocol: as §1, §2, §3, §4

asah1 = test: as above; type: cell-based, human; settings: HepG2 cells, 24 hr exposure, relative value, control group = 1.0, GAPDH internal standard, n=3
Protocol: as §1, §2, §3, §4

flj22362 = test: as above; type: cell-based, human; settings: HepG2 cells, 24 hr exposure, relative value, control group = 1.0, GAPDH internal standard, n=3
Protocol: as §1, §2, §3, §4

lss = test: as above; type: cell-based, human; settings: HepG2 cells, 24 hr exposure, relative value, control group = 1.0, GAPDH internal standard, n=3
Protocol: as §1, §2, §3, §4

hpn = test: as above; type: cell-based, human; settings: HepG2 cells, 24 hr exposure, relative value, control group = 1.0, GAPDH internal standard, n=3
Protocol: as §1, §2, §3, §4

serpina3 = test: as above; type: cell-based, human; settings: HepG2 cells, 24 hr exposure, relative value, control group = 1.0, GAPDH internal standard, n=3
Protocol: as §1, §2, §3, §4

nr0b2 = test: as above; type: cell-based, human; settings: HepG2 cells, 24 hr exposure, relative value, control group = 1.0, GAPDH internal standard, n=3
Protocol: as §1, §2, §3, §4

fabp1 = test: as above; type: cell-based, human; settings: HepG2 cells, 24 hr exposure, relative value, control group = 1.0, GAPDH internal standard, n=3
Protocol: as §1, §2, §3, §4

depp = test: as above; type: cell-based, human; settings: HepG2 cells, 24 hr exposure, relative value, control group = 1.0, GAPDH internal standard, n=3
Protocol: as §1, §2, §3, §4

| frequency of appearance of myelin-like structure (HepG2 cells [2]) | expression variation rate slc2a3 (slc2a3) | expression variation rate tagln (tagln) | expression variation rate mgc4171 (mgc4171) | expression variation rate kiaa1001 (kiaa1001) | expression variation rate asah1 (asah1) | expression variation rate flj22362 (flj22362) | expression variation rate lss (lss) | expression variation rate hpn (hpn) | expression variation rate serpina3 (serpina3) | expression variation rate nr0b2 (nr0b2) | expression variation rate fabp1 (fabp1) | expression variation rate depp (depp) | Structure (SMILES) | addition concentration (highest concentration at which cells survived after 72 hr of culture) (HepG2 cells [1]) |
| --- | --- | --- | --- | --- | --- | --- | --- | --- | --- | --- | --- | --- | --- | --- |
| − | 0.88 | 0.85 | 1.08 | 1.78 | 0.86 | 0.73 | 0.90 | 1.08 | 0.96 | 0.74 | 1.00 | 0.98 | CCN(CC)CCNC(=O)c1ccc(N)cc1 [procainamide] | 25 µmol/L |
| − | 1.11 | 0.99 | 0.78 | 0.84 | 1.26 | 0.87 | 0.82 | 0.89 | 0.98 | 0.82 | 0.85 | 0.70 | Cc1cc(NS(=O)(=O)c2ccc(N)cc2)no1 [sulfamethoxazole] | 25 µmol/L |
| ++ | 0.24 | 0.27 | 1.60 | 1.85 | 4.50 | 1.53 | 3.01 | 2.19 | 2.12 | 2.56 | 1.90 | 2.02 | CC/C(=C(\c1ccccc1)c1ccc(OCCN(C)C)cc1)c1ccccc1 [tamoxifen] | 8.3 µmol/L |
| + | 0.70 | 0.59 | 1.12 | 2.24 | 2.91 | 1.71 | 1.05 | 1.74 | 1.95 | 1.33 | 1.42 | 2.67 | CN(C)C/C=C(/c1ccc(Br)cc1)c1cccnc1 [zimelidine] | 25 µmol/L |

Further lines, the molecule ahead of its results:

| Structure (SMILES) | frequency of appearance of myelin-like structure (HepG2 cells [2]) | expression variation rate slc2a3 (slc2a3) | expression variation rate tagln (tagln) | expression variation rate mgc4171 (mgc4171) | expression variation rate kiaa1001 (kiaa1001) | expression variation rate asah1 (asah1) | expression variation rate flj22362 (flj22362) | expression variation rate lss (lss) | expression variation rate hpn (hpn) | expression variation rate serpina3 (serpina3) | expression variation rate nr0b2 (nr0b2) | expression variation rate fabp1 (fabp1) | expression variation rate depp (depp) | addition concentration (highest concentration at which cells survived after 72 hr of culture) (HepG2 cells [1]) |
| --- | --- | --- | --- | --- | --- | --- | --- | --- | --- | --- | --- | --- | --- | --- |
| CN[C@H]1CC[C@@H](c2ccc(Cl)c(Cl)c2)c2ccccc21 [sertraline] | ++ | 0.14 | 0.37 | 1.94 | 2.38 | 3.08 | 3.49 | 3.91 | 3.07 | 2.69 | 1.79 | 4.14 | 4.44 | 8.3 µmol/L |
| CC(C)NCC(O)c1ccc(NS(C)(=O)=O)cc1 (stereo not shown) [sotalol] | − | 1.53 | 0.80 | 0.72 | 0.84 | 1.39 | 0.85 | 0.88 | 0.79 | 0.78 | 0.63 | 0.98 | 0.80 | 25 µmol/L |
| CNS(=O)(=O)Cc1ccc2[nH]cc(CCN(C)C)c2c1 [sumatriptan] | − | 0.99 | 1.06 | 0.99 | 1.34 | 1.35 | 1.26 | 1.23 | 1.16 | 0.95 | 0.63 | 1.01 | 1.05 | 25 µmol/L |
| CSc1ccc2c(c1)N(CCC1CCCCN1C)c1ccccc1S2 (stereo not shown) [thioridazine] | + | 0.38 | 0.46 | 1.32 | 5.79 | 1.36 | 1.57 | 2.03 | 2.85 | 2.46 | 0.77 | 5.07 | 2.02 | 8.3 µmol/L |
